We go through one compound from ChEMBL document CHEMBL4043168, “The design and SAR of a novel series of 2-aminopyridine based LRRK2 inhibitors” (Bioorg Med Chem Lett, 2017).

The target in test [1] is T1, Mitogen-activated protein kinase kinase kinase 5 (Homo sapiens) (UniProt Q99683).
T1 sequence (whole entry): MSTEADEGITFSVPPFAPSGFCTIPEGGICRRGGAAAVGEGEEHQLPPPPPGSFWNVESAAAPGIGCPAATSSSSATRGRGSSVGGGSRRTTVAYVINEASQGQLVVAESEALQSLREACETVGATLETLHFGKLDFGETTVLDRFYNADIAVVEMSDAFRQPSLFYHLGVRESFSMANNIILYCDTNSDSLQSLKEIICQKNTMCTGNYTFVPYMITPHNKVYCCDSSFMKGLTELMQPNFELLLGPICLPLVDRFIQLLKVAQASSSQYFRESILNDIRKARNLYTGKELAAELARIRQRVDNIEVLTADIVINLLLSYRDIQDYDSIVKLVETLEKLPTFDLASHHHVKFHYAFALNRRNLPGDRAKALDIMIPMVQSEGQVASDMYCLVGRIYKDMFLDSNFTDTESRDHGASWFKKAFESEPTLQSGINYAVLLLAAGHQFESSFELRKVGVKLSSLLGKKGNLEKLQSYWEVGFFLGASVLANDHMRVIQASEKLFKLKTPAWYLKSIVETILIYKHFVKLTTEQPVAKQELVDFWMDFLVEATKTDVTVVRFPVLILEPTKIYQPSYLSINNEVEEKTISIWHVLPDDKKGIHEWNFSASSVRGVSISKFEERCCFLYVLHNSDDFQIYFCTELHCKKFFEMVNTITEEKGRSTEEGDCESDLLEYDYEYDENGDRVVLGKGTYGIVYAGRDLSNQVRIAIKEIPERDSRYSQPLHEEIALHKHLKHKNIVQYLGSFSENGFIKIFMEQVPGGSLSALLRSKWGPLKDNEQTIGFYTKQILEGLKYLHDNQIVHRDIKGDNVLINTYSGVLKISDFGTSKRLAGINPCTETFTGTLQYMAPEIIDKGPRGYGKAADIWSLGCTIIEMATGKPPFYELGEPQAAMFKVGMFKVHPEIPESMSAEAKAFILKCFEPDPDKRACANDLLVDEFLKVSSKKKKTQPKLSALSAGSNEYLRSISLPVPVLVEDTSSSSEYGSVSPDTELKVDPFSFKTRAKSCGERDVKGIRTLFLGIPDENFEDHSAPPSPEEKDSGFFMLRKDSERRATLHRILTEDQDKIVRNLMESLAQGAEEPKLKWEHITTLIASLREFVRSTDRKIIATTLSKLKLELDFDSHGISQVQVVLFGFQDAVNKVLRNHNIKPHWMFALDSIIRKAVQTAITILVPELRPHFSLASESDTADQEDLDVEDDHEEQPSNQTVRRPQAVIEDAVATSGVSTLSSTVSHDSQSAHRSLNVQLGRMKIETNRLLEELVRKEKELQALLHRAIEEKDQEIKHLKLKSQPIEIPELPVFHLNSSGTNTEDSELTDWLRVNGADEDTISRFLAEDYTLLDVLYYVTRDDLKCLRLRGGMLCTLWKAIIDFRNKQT
In words: Inhibition of MAP3K5 conserved Lys1 (IAIKEIPER) in human PBMC at 1 uM.

Test [2] addresses Calcium/calmodulin-dependent protein kinase type II subunit beta (Homo sapiens) (UniProt Q13554). Nature of the test: Inhibition of CaMK2b labeling at conserved Lys2 (DLKPENLLLASK) in human PBMC at 1 uM.
Test [3] deals with Ribosomal protein S6 kinase delta-1 (Homo sapiens) (UniProt Q96S38). In words: Inhibition of RSKL1 domain1 Protein Kinase Domain (VLGVIDKVLLVMDTR) in human PBMC at 1 uM.
Test [4] concerns the target Tyrosine-protein kinase BTK (Homo sapiens) (UniProt Q06187). In words: Inhibition of BTK labeling at activation Loop (YVLDDEYTSSVGSKFPVR) in human PBMC at 0.1 uM.
The target of test [5] is T2, Serine/threonine-protein kinase LATS1 (Homo sapiens) (UniProt O95835).
T2 sequence (whole entry): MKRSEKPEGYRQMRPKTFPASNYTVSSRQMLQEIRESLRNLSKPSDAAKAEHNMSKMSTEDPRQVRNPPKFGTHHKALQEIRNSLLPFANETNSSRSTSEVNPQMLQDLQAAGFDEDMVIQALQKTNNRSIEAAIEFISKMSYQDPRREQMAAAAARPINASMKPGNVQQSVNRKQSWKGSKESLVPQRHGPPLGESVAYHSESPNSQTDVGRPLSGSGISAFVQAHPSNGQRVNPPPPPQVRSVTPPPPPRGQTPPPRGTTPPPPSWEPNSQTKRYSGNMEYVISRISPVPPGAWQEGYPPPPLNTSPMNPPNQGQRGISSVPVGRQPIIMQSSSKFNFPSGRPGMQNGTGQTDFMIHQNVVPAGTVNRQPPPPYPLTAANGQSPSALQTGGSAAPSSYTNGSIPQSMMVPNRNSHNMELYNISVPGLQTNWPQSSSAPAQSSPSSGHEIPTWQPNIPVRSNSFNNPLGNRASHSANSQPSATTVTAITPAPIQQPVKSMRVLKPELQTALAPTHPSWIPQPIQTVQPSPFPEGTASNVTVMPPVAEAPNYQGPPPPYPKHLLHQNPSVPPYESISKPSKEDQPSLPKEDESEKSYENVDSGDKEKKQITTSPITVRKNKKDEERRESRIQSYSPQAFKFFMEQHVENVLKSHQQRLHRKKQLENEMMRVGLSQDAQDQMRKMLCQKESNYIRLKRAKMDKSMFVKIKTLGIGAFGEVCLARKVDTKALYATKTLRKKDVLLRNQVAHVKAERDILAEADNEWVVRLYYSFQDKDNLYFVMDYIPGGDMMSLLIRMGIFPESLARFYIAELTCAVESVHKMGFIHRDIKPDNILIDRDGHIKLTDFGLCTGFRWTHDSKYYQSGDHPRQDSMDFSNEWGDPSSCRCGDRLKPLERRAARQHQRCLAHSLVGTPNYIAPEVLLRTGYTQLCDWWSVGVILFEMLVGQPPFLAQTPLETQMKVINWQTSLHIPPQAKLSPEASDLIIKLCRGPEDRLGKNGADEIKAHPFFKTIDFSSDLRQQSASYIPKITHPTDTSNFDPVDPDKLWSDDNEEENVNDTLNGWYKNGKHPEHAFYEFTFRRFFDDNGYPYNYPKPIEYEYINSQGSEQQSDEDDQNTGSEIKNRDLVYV
In words: Inhibition of LATS1 conserved Lys2 (DIKPDNILIDR) in human PBMC at 1 uM.

Test [6] deals with 5'-AMP-activated protein kinase catalytic subunit alpha-2 (Homo sapiens) (UniProt P54646). Nature of the test: Inhibition of AMPKa2 labeling at conserved Lys1 (VAVKILNR) in human PBMC at 1 uM.
Test [7] addresses Tyrosine-protein kinase Lyn (Homo sapiens) (UniProt P07948). In words: Inhibition of LYN activation Loop (EGAKFPIKWTAPEAINFGCFTIK) in human PBMC at 0.1 uM.
The target of test [8] is Calcium/calmodulin-dependent protein kinase type II subunit alpha (Homo sapiens) (UniProt Q9UQM7). In words: Inhibition of CaMK2a labeling at conserved Lys2 (DLKPENLLLASK) in human PBMC at 1 uM.
Sequence of Calcium/calmodulin-dependent protein kinase type II subunit alpha (Homo sapiens) (Q9UQM7 whole entry): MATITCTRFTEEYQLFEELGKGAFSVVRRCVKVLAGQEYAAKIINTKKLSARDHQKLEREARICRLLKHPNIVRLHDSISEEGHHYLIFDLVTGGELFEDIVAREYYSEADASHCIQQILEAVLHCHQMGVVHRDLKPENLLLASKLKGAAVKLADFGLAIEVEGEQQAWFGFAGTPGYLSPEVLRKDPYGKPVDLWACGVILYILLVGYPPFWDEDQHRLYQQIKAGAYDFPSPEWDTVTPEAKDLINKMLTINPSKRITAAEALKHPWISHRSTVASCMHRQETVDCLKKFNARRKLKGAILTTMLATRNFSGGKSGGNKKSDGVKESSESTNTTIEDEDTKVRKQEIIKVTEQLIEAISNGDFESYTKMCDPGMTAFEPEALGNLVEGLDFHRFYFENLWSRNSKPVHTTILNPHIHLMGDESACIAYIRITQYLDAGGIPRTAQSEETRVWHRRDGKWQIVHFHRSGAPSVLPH

Sequence of Calcium/calmodulin-dependent protein kinase type II subunit beta (Homo sapiens) (Q13554 whole entry, the tested form may be a part): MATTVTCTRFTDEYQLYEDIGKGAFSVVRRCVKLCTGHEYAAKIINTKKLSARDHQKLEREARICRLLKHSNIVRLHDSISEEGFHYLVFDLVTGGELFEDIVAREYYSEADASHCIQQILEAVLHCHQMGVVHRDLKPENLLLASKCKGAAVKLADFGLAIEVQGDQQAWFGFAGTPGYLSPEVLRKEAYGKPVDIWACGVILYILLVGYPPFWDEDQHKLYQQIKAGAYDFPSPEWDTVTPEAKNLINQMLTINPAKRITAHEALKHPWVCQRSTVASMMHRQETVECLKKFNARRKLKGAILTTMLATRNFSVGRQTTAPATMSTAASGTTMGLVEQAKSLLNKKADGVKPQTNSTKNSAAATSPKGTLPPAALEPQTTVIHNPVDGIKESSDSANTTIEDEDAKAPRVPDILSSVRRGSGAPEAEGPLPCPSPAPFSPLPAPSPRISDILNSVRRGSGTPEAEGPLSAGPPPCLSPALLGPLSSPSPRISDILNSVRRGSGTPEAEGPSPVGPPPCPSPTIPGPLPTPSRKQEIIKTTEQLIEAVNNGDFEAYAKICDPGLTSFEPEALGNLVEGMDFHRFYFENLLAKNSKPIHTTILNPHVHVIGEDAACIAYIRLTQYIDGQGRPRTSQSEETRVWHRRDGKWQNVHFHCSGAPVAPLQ
Sequence of Ribosomal protein S6 kinase delta-1 (Homo sapiens) (Q96S38 whole entry, the tested form may be a part): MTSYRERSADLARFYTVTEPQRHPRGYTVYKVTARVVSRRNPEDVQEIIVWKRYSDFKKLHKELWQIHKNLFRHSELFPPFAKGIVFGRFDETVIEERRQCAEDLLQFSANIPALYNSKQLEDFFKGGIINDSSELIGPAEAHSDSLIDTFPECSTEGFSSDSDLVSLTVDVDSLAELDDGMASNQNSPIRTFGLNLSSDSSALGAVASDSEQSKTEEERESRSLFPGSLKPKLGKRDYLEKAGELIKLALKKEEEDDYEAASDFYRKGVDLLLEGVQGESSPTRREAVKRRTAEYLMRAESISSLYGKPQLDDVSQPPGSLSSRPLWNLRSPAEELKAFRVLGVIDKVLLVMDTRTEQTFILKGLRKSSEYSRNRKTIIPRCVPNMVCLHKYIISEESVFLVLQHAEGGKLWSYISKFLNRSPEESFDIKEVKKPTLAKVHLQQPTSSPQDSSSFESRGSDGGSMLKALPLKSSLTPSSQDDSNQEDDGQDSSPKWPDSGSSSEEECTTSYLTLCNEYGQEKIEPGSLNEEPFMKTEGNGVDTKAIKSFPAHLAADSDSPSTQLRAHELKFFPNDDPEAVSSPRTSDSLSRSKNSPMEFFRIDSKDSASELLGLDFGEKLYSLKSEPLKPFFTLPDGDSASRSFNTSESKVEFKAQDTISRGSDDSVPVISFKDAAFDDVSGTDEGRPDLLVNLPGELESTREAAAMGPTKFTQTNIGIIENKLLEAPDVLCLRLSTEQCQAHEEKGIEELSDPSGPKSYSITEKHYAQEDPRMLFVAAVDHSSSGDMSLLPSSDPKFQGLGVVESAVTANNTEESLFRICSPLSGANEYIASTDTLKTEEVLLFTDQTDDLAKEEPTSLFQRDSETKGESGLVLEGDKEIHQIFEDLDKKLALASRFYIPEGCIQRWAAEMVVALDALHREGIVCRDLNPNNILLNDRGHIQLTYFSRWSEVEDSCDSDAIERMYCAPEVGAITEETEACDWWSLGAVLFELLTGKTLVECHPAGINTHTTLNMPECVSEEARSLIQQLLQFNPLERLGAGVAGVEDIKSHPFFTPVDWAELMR
Sequence of 5'-AMP-activated protein kinase catalytic subunit alpha-2 (Homo sapiens) (P54646 whole entry, looked up): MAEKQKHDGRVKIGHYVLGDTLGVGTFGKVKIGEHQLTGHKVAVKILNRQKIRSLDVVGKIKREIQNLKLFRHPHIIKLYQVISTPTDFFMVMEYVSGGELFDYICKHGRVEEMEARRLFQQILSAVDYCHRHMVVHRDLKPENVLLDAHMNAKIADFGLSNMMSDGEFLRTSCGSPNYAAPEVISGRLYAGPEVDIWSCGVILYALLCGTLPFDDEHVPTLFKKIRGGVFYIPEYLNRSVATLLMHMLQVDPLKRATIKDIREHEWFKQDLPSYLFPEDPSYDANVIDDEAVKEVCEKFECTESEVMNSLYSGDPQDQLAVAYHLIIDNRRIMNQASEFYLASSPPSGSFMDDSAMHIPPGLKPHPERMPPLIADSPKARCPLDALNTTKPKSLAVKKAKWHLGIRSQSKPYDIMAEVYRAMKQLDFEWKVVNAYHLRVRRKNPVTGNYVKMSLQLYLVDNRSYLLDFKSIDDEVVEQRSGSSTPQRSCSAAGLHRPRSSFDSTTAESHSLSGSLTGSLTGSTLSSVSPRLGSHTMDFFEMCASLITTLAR
Sequence of Tyrosine-protein kinase BTK (Homo sapiens) (Q06187 whole entry): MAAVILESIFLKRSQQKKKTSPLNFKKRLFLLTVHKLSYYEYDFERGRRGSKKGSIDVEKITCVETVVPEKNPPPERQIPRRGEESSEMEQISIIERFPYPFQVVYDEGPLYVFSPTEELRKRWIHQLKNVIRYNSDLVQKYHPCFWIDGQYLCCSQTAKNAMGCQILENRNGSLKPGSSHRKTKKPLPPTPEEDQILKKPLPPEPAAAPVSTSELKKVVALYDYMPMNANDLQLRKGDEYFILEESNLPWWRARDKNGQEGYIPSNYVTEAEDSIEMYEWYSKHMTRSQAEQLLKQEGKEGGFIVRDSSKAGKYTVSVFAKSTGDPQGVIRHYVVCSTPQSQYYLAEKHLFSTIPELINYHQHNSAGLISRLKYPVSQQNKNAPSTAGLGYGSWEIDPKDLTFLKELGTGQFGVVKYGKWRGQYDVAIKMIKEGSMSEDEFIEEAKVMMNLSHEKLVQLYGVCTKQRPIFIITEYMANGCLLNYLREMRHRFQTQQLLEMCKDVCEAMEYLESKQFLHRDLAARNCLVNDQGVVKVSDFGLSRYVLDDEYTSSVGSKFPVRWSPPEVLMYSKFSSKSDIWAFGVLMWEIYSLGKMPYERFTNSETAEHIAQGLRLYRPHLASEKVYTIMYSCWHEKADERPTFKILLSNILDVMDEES
Sequence of Tyrosine-protein kinase Lyn (Homo sapiens) (P07948 2-512 limits assumed): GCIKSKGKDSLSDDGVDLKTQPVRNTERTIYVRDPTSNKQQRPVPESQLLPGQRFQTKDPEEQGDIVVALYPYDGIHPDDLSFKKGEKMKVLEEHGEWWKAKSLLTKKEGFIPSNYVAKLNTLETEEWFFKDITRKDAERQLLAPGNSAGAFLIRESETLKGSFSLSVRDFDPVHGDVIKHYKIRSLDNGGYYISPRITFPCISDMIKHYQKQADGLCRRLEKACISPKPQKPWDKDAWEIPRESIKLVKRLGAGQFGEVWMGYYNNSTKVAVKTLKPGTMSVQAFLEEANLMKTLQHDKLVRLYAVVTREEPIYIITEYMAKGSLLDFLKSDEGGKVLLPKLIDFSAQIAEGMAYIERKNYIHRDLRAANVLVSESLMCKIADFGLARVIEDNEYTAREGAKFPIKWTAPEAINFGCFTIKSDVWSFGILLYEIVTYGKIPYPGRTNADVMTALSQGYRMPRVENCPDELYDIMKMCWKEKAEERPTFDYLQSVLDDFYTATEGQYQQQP

The inhibition is the drop in the measured response relative to a control, in per cent. `CC(C)n1cc(-c2cc(-c3ccc(CN4CCOCC4)cc3)cnc2N)nn1`: the inhibition is -3.3% in test [1]; -0.4% in test [2]; 4.7% in test [3]; 14.2% in test [4]; 30.9% in test [5]; 17.3% in test [6]. For the same compound, the inhibition was 6.1% in test [7] and -0.4% in test [8].
